In assay [1] the target is Cyclin-dependent kinase 4/cyclin D1 (Homo sapiens, UniProt P11802). Nature of the assay: Inhibitory activity against baculovirus expressed Cyclin dependent kinase 4-cyclinD1. The assay is classed as protein-complex assay.
The test system of assay [2] is A2780. Nature of the assay: cells. As to conditions: Homo sapiens.
Description: Cytotoxic activity against A2780 human ovarian carcinoma cell line
Assay [3] deals with Cyclin-dependent kinase 2/cyclin E (Homo sapiens, UniProt P24941). The assay is described as follows: Inhibitory activity against baculovirus expressed Cyclin dependent kinase 2-cyclinE. The assay is classed as protein-complex assay.
In assay [4] the target is Cyclin-dependent kinase 1/cyclin B (Homo sapiens, UniProt P06493). Nature of the assay: Inhibitory activity against baculovirus expressed Cyclin dependent kinase 1-cyclinB. The assay is classed as protein-complex assay.
For assay [5], the system named is MCF7. The assay is described as follows: Inhibition of MCF-7 human breast carcinoma cell proliferation. The assay is classed as functional, cell-based.
Assay [6] deals with PC-3. The assay is described as follows: Inhibition of PC3 human prostate carcinoma cell proliferation. The assay is classed as functional, cell-based.
The subject of assay [7] is HCT-116. The assay is described as follows: Inhibition of HCT116 human colon carcinoma cell proliferation. The assay is classed as functional, cell-based.
Assay [8] concerns A-431. The assay is described as follows: Inhibition of A431 human squamous cell carcinoma cell proliferation. The assay is classed as functional, cell-based.
For assay [9], the target named is Cyclin-dependent kinase 2 (Homo sapiens) (UniProt P24941). Nature of the assay: Apoptotic A2780 cells after 24 hr r at 295 nM (IC90). The assay is classed as functional, cell-based.
The test system of assay [10] is A2780. The assay is described as follows: Inhibition of A2780 / TAX-R human ovarian carcinoma cell proliferation. The assay is classed as functional, cell-based.
For assay [11], the target named is Cyclin-dependent kinase 2 (Homo sapiens) (UniProt P24941). The assay is described as follows: Percentage A2780 cells in G1 after 24 hr r at 295 nM (IC90). The assay is classed as functional, cell-based.
Assay [12] concerns SK-BR-3. The assay is described as follows: Inhibition of SKBR-3 human breast carcinoma cell proliferation. The assay is classed as functional, cell-based.
The nature of assay [13]: Inhibition of Insulin-like growth factor receptor.
The subject of assay [14] is OVCAR-3. Nature of the assay: Inhibition of OVCAR-3 human ovarian carcinoma cell proliferation. It is filed as functional, cell-based.
In assay [15] the target is Cyclin-dependent kinase 2 (Homo sapiens) (UniProt P24941). The assay is described as follows: Percentage A2780 cells in sub-G1 after 24 hr r at 295 nM (IC90). It is filed as functional, cell-based.
Assay [16] deals with CCRF-CEM. Nature of the assay: Inhibition of CCRF-CEM human leukemia cell proliferation. The assay is classed as functional, cell-based.
The test system of assay [17] is ABAE. Nature of the assay: Inhibition of ABAE […] cell proliferation. It is filed as functional, cell-based.
Assay [18] has as its target T1, Tyrosine-protein kinase ITK/TSK (Homo sapiens, UniProt Q08881).
T1 sequence (Q08881 whole entry): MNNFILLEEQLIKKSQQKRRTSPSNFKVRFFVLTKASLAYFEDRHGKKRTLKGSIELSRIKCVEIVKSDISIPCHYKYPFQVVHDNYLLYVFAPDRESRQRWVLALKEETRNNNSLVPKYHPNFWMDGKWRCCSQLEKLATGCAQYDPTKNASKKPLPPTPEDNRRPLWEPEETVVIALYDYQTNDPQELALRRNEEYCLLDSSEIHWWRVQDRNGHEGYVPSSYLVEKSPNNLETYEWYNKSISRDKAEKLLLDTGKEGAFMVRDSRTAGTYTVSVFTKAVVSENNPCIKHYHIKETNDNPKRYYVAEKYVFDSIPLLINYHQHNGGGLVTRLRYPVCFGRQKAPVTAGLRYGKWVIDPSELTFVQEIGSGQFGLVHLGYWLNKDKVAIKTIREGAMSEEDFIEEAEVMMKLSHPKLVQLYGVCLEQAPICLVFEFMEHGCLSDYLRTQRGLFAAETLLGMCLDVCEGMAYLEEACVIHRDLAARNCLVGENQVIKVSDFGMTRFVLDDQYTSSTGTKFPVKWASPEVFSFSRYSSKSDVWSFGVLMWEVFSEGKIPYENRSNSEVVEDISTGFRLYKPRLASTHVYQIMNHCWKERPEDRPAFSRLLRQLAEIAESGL
Nature of the assay: Inhibition of tyrosine kinase EMT.

Assay [19] deals with HL-60. Nature of the assay: Inhibition of HL60 human leukemia cell proliferation. The assay is classed as functional, cell-based.
The test system of assay [20] is A2780. Nature of the assay: Inhibition of A2780 / TAX-S human ovarian carcinoma cell proliferation. It is filed as functional, cell-based.
Assay [21] concerns the target Cyclin-dependent kinase 2 (Homo sapiens) (UniProt P24941). The assay is described as follows: Percentage A2780 cells in sub-G1 after 24 hr r at 20 nM (IC50). The assay is classed as functional, cell-based.
For assay [22], the system named is HCT-116. The assay is described as follows: Inhibition of HCT116 / VM46 human colon carcinoma cell proliferation. It is filed as functional, cell-based.
Assay [23] has as its system Caco-2. Nature of the assay: Inhibition of CACO-2 human colon carcinoma cell proliferation. It is filed as functional, cell-based.
The target in assay [24] is Cyclin-dependent kinase 2 (Homo sapiens) (UniProt P24941). The assay is described as follows: Percentage A2780 cells in S-phase after 24 hr r at 295 nM (IC90). It is filed as functional, cell-based.
Assay [25] shares this target. The assay is described as follows: Percentage A2780 cells in G2/M after 24 hr r at 20 nM (IC50). It is filed as functional, cell-based.
The test system of assay [26] is A2780. Nature of the assay: Inhibition of A2780 / DDP-R human ovarian carcinoma cell proliferation. The assay is classed as functional, cell-based.
Assay [27] relates to HS27. Nature of the assay: Inhibition of Hs 27 human fibroblast cell proliferation. The assay is classed as functional, cell-based.
The target in assay [28] is Cyclin-dependent kinase 2 (Homo sapiens) (UniProt P24941). Nature of the assay: Percentage A2780 cells in S-phase after 24 hr r at 20 nM (IC50). The assay is classed as functional, cell-based.
For assay [29] the target is unchanged. Nature of the assay: Apoptotic A2780 cells after 24 hr r at 20 nM (IC50). The assay is classed as functional, cell-based.
For assay [30], the system named is A549. The assay is described as follows: Inhibition of A549 human lung carcinoma cell proliferation. The assay is classed as functional, cell-based.
Assay [31] concerns K562. Nature of the assay: Inhibition of K562 human leukemia cell proliferation. It is filed as functional, cell-based.
The test system of assay [32] is LX-1. Nature of the assay: Inhibition of LX-1 human lung carcinoma proliferation. It is filed as functional, cell-based.
Assay [33] concerns M109. The assay is described as follows: Inhibition of M109 mouse lung carcinoma cell proliferation. It is filed as functional, cell-based.
Assay [34] deals with Cyclin-dependent kinase 2 (Homo sapiens) (UniProt P24941). The assay is described as follows: Percentage A2780 cells in G1 after 24 hr r at 20 nM (IC50). It is filed as functional, cell-based.
For assay [35], the system named is MIP. Nature of the assay: Inhibition of MIP human colon carcinoma cell line. The assay is classed as functional, cell-based.
Assay [36] relates to LS174T. Nature of the assay: Inhibition of LS174T human colon carcinoma cell proliferation. The assay is classed as functional, cell-based.
Assay [37] has as its target Cyclin-dependent kinase 2 (Homo sapiens) (UniProt P24941). Nature of the assay: Percentage A2780 cells in G2/M after 24 hr r at 295 nM (IC90). It is filed as functional, cell-based.
Assay [38] has as its system A2780. The assay is described as follows: Inhibition of A2780 / DDP-S human ovarian carcinoma cell proliferation. It is filed as functional, cell-based.
Assay [39] deals with HCT-116. The assay is described as follows: Inhibition of HCT116 / VP35 human colon carcinoma cell proliferation. It is filed as functional, cell-based.
Assay [40] concerns the target Receptor tyrosine-protein kinase erbB-2 (Homo sapiens, UniProt P04626). Nature of the assay: Inhibition of HER2 kinase.
Assay [41] concerns MLF. The assay is described as follows: Inhibition of MLF mouse lung fibroblast cell proliferation. The assay is classed as functional, cell-based.

pIC50: −log10 of the molar value.

6 compounds from ChEMBL document CHEMBL1135763, “Discovery of aminothiazole inhibitors of cyclin-dependent kinase 2: synthesis, X-ray crystallographic analysis, and biological activities” (J Med Chem, 2002) can be followed below.

Sequence of Cyclin-dependent kinase 4/cyclin D1 (P11802 whole entry): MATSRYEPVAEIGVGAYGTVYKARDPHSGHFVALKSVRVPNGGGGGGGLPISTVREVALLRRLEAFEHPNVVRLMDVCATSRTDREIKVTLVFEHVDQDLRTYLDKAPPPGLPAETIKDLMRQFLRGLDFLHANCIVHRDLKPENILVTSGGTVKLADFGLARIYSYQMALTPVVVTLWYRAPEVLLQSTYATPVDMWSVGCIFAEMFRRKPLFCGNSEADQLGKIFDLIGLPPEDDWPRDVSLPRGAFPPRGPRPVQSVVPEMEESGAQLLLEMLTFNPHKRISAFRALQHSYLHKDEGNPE
Sequence of Cyclin-dependent kinase 4/cyclin D1 (P24385 whole entry, further chain): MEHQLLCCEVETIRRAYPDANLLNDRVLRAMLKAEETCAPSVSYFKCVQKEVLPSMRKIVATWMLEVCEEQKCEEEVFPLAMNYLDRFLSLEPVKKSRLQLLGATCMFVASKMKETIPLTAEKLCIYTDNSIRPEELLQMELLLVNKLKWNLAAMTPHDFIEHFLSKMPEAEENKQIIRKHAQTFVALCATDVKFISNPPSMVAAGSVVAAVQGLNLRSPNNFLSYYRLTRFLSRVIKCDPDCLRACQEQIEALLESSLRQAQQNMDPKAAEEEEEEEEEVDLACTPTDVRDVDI
Sequence of Receptor tyrosine-protein kinase erbB-2 (P04626 whole entry): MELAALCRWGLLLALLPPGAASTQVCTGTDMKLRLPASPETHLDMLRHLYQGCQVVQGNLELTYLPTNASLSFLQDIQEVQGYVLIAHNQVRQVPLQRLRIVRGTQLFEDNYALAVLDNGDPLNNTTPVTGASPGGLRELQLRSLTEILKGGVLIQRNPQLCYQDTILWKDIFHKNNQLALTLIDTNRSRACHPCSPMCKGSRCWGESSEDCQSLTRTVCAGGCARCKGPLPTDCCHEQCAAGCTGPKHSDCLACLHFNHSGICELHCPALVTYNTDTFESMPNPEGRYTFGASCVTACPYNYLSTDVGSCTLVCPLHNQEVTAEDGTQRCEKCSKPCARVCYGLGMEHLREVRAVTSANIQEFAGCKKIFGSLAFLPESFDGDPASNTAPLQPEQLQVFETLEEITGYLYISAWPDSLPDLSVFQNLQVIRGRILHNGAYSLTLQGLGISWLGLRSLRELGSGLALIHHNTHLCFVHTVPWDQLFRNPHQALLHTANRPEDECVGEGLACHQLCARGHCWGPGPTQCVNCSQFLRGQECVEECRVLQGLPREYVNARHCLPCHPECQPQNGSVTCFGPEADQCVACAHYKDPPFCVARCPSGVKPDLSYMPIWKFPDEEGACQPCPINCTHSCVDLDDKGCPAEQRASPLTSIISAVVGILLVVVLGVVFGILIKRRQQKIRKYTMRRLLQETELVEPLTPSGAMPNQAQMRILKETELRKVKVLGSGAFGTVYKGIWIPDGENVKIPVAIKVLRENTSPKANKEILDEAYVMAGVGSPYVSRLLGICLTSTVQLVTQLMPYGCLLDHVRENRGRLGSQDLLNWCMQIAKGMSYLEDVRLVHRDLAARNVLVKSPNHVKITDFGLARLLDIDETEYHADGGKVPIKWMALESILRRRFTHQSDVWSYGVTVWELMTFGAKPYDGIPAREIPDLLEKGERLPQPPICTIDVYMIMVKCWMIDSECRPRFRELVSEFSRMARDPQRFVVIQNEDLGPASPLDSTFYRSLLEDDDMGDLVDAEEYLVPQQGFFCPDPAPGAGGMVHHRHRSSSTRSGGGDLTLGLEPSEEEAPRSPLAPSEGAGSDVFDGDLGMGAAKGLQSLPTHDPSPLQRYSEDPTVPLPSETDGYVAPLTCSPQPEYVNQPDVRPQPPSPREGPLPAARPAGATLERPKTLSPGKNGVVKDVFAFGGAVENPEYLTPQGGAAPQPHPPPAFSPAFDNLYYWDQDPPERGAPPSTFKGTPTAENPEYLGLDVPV

In general, pIC50 refers to the negative decadic logarithm of the IC50, by convention in mol/L. On to `CCc1cnc(CSc2cnc(NC(=O)C(C)C)s2)o1`, for which the pIC50 in [1] is 5.97; in [2], 6.70; in [3], 8.30; in assay [4] it was 7.22.
Consider `CCc1cnc(CSc2cnc(NC(C)=O)s2)o1`, for which the pIC50 in [5] was 5.83; in [6], 5.97; in assay [7], 6.32; in assay [8], 6.02; in [10] it was 5.94; in assay [12] it was 5.79. In addition, the pIC50 in assay [13] was less than 4.60; in assay [14], 5.92; in assay [16], 5.84; in assay [17], 5.96; in [18], less than 5.00; in assay [19], 5.85. The pIC50 in assay [20] was 6.15; in [22], 6.28; in assay [23], 5.79; in assay [26] it was 5.85; in assay [1], 5.65; in [2], 5.85. For the same compound, the pIC50 is 6.07 in assay [27]; 5.73 in [30]; 5.49 in [31]; 5.72 in assay [32]; 5.68 in assay [33]; 5.75 in assay [35]. Further, the negative-log IC50 (pIC50) in assay [36] is 5.77; in assay [3] it was 7.70; in assay [38], 5.98; in assay [39], 6.35; in [40], less than 4.60; in [4], 6.52. In addition, the pIC50 in assay [41] is 5.73. The Cell cycle in assay [9] worked out at 16%; in [11], 62%; in assay [15], 7%; in assay [21], 2%; in [24], 6%; in assay [25], 29%. Also, the Cell cycle in assay [28] is 11%; in assay [29], 6%; in assay [34], 58%; in assay [37] it was 25%.
Regarding `CC(C)(C)c1cnc(CSc2cnc(NC(=O)Nc3c(Cl)cccc3Cl)s2)o1`, the pIC50 in assay [1] was less than 6.00; in [2] it was 5.82; in assay [3] it was 8.52; in assay [4], 7.52.
With `CC(C)(C)c1cnc(CSc2cnc(NC(=O)Nc3c(F)cccc3F)s2)o1`, the pIC50 in [1] is 6.41; in [2], 6.62; in [3] it was 8.70; in assay [4], 8.00.
Take `CC(C)(C)c1cnc(CSc2cnc(NC(=O)Nc3ccc(F)cc3)s2)o1`: the pIC50 in assay [1] is 6.05; in assay [2], 6.05; in assay [3] it was 7.96; in [4] it was 7.72.
Turning to `CC(C)C(=O)Nc1ncc(SCc2ncc(C(C)(C)C)o2)s1`, the pIC50 in assay [1] is 6.05; in [2] it was 7.30; in assay [3], 8.30; in [4], 7.52.
